Reference: ChEMBL document CHEMBL1130470, “Novel inhibitors of the prenylated protein methyltransferase reveal distinctive structural requirements” (Bioorg Med Chem Lett, 1997)

test: In vitro inhibitory activity against prenylated protein methyltransferase (PPMTase), activity expressed as Ki(inhibitory constant); set-up: species or system Rattus norvegicus

Ki [µM] | SMILES
> 50 | CC(C)=CCC/C(C)=C/CC/C(C)=C/CC/C(C)=C/CSc1ccccc1C(=O)O
> 50 | COC(=O)c1ccccc1SC/C=C(\C)CC/C=C(\C)CCC=C(C)C
2.8 | CC(C)=CCC/C(C)=C/CC/C(C)=C/CSc1ccccc1C(=O)O [SALIRASIB]

More lines, now with the values behind:

SMILES | Ki [µM]
CC(C)=CCC/C(C)=C/CC/C(C)=C/CSc1c(Cl)cccc1C(=O)O | > 50
CC(C)=CCC/C(C)=C/CC/C(C)=C/CSc1ccc(F)cc1C(=O)O | 6.3
CC(C)=CCC/C(C)=C/CC/C(C)=C/CSc1ccc(Cl)cc1C(=O)O | 8.5
CC(C)=CCC/C(C)=C/CC/C(C)=C/CSc1cc(F)ccc1C(=O)O | 23
CC(C)=CCC/C(C)=C/CC/C(C)=C/CSc1cc(Cl)ccc1C(=O)O | 28
CC(C)=CCC/C(C)=C/CSc1ccccc1C(=O)O | > 50
